“Also recorded” adds a separate entry of the source.
Key:
[1] = tested on: Acute Promyelocytic Leukemia (APL) cell line NB4 and Arsenic resistant NB4-AsR cell line; experiment: Annexin-V apoptosis assay with PDE-4 inhibitor pre-treatment plus ATO in APL cells; assay type: cell-based, human
Description: (§1) The Parental Acute Promyelocytic Leukemia (APL) cell line NB4 and the Arsenic resistant NB4-AsR cell line were seeded at 0.8×10^5 cells/mL of fresh RPMI 1640 medium (Sigma Aldrich), supplemented with 10% fetal calf serum, 2 mM L-glutamine, penicillin G (100 U/mL), streptomycin ([…]). Cells were pre-treated for 30 minutes with vehicle (DMSO), CHF-6001 (1 and 10 μM), Roflumilast (1 and 10 μM) or Piclamilast (1, and 50 μM) and then incubated with ATO at the indicated doses. After 72 hours cells were collected, stained with Annexin-V FITC (according to the manufacturer's recommendations—Bender MedSystems) and processed by flow cytometry (FACSCalibur, Becton Dickinson, San Josè, Calif.) to evaluate the percentage of apoptosis as described in Lunghi P et al., Leukemia. 2005; 19(2):234-44, which is incorporated herein by reference in its entirety.

[2] = tested on: Imatinib-sensitive (K562-SENS, LAMA-SENS, KCL22-SENS) and Imatinib-resistant (K562-RES, LAMA-RES, KCL22-RES and BAF3 p210-T315I) chronic myeloid leukemia (CML) …; experiment: Apoptosis (sub-G1 propidium iodide or Annexin-V) with PDE-4 inhibitor plus ATO in CML cell lines; assay type: cell-based, human
Description: as §1
The Imatinib-sensitive (K562-SENS, LAMA-SENS, KCL22-SENS) and Imatinib-resistant (K562-RES, LAMA-RES, KCL22-RES and BAF3 p210-T315I) chronic myeloid leukemia (CML) cell lines were cultured with the PDE-4 inhibitor and ATO as described in Example 1. After 72 hours cells were harvested, stained with Propidium Iodide to evaluate the percentage of cells with hypodiploid DNA content (sub-G1) or with Annexin-V FITC as described in Lunghi P et al Leukemia. 2005; 19(2):234-44, which is incorporated herein by reference in its entirety.

[3] = tested on: LAMA-RES, NB4 and NB4-AsR cell lines; experiment: C2/ATO-induced apoptosis (annexin V) in the presence of caspase inhibitors; assay type: cell-based, human; conditions: caspase inhibitors 25 μM, 1 hour pre-treatment; 24 hours; FIG. 4
From the text: On the Y-axis the histograms represent the percentage of apoptotic cells measured by Annexin V staining (% ANNEXIN V+). NEG indicates peptide control Cbz-Phe-Ala-fluoromethyl ketone (Z-FA-FMK), CASPASE-8 IN, specific caspase-8 inhibitor Cbz-Ile-Glu(Ome)-Thr-Asp(Ome)-fluoromethyl ketone (Z-IETD-FMK), CASPASE-9 IN, specific caspase-9 inhibitor Cbz-Leu-Glu(Ome)-His-Asp(Ome)-fluoromethyl ketone (Z-LEHD-FMK), PANCASPASE IN, pancaspase inhibitor Cbz-Val-Ala-Asp(Ome)-fluoromethyl ketone (Z-VAD-FMK); CTR, control; C2, compound C2; ATO, arsenic trioxide.
LAMA-RES, NB4 and NB4-AsR cell lines were pretreated with selective caspase inhibitors for 1 hour before adding C2 and/or ATO. After 24 hours the percentage of apoptotic cells was determined by the annexin V method. More specifically, the caspase inhibitors are: NEG peptide control Cbz-Phe-Ala-fluoromethyl ketone (Z-FA-FMK), CASPASE-8 inhibitor Cbz-Ile-Glu(Ome)-Thr-Asp(Ome)-fluoromethyl ketone (Z-IETD-FMK), CASPASE-9 inhibitor Cbz-Leu-Glu(Ome)-His-Asp(Ome)-fluoromethyl ketone (Z-LEHD-FMK), and the PANCASPASE inhibitor Cbz-Val-Ala-Asp(Ome)-fluoromethyl ketone (Z-VAD-FMK), all provided from Alexis (San Diego, Calif., USA). All caspase inhibitors were dissolved in DMSO, stocked in aliquots at −20° C., and used at the final concentration of 25 μM.

[4] = tested on: NB4 and NB4-AsR Acute Promyelocytic Leukemia cell lines; experiment: Myeloid differentiation (CD11b expression, NBT reduction test) with ATRA or low-dose ATO; assay type: cell-based, human
Description: NB4 and NB4-AsR were seeded at 0.8×10^5 cells/mL in presence of vehicle (DMSO) or the PDE-4 inhibitor at the indicated doses for 30 minutes and then incubated with 0.1 μM and 1 μM of all-trans retinoic acid ([…]) promoting cell differentiation (see Chen GQ et al., Blood. 1997; 89(9):3345-53, which is incorporated herein by reference in its entirety). After 72 hours of treatment, early and late stage of differentiation was evaluated. More specifically, expression of the cell surface CD11b, an early-expressed maturation marker, was measured by flow cytometry using fluorescein isothiocyanate (FITC)-conjugated anti-CD11b antibody (Sigma Chemical Co.) according to the manufacturer's protocol. Late stage differentiation of leukemic cells was detected using the microscopic nitroblue tetrazolium (NBT) reduction test (Chen GQ et al., vide supra).
This assay is conducted by counting the cells containing blue NBT formazan deposits, which are formed by reduction of the membrane permeable, water-soluble, yellow-colored, nitroblue tetrazolium (NBT) by superoxide anions O2. Over 300 cells were counted per sample, and variation in replicates was routinely within 10%.

[5] = tested on: NB4 and NB4-AsR cell lines; experiment: Myeloid marker panel (CD33, CD38, CD11b, CD14, CD15) and NBT reduction with C2/ATRA; assay type: cell-based, human
Description: On the Y-axis the histograms represent, for each cell line, the percentage of myeloid differentiation measured using a panel of myeloid markers (CD33, CD38, CD11b, CD15, CD14) and nitroblue tetrazolium reduction test (% NBT+). Vehicle indicates Dimethyl sulfoxide (DMSO); C2, compound C2; CTR, control; ATRA, all-trans retinoic acid.
NB4 e NB4-AsR cell lines were cultured with C2/ATRA for 72 hours, after which cells were harvested for determination of NBT reduction and expression of differentiation-associated surface antigens CD33, CD38, CD11b, CD14 and CD15. Cytofluorimetric analysis of surface antigen expression was performed using the following monoclonal antibodies all provided by Sigma Chemical: fluorescein isothiocyanate (FITC)-conjugated anti-CD33 antibody, (FITC)-conjugated anti-CD38 antibody, (FITC)-conjugated anti-CD11b antibody, (FITC)-conjugated anti-CD 14 antibody and (FITC)-conjugated anti-CD15 antibody. Briefly, each antibody was incubated at the proper dilution with cell samples in PBS containing 1% BSA for 30 minutes at room temperature. Cells were then washed and resuspended with PBS and analyzed by flow cytometer.

[6] = tested on: chronic lymphocytic leukemia (CLL) B-lymphocytes; conditions: in vitro; Mentz F et al., Br. J. Hematol. 1995; cited from earlier work

SMILES | effectiveness versus roflumilast or piclamilast in potentiating the proapoptotic effects of ATO ([1]; APL cells incl. ATO-resistant, P<0.001 versus same doses of comparator + ATO, P<0.005 C2 1 μM versus comparator 10 μM) | potentiation of the proapoptotic effects of ATO (% Annexin V+ cells) ([1]; C2 1 μM/10 μM + ATO 1 μM, 72 hours, P<0.001 versus either mono-treatment, FIG. 1) | potentiation of the proapoptotic effects of ATO (% sub-G1 or % Annexin V+) ([2]; C2 1 μM/10 μM + ATO 2 μM (ATO 1 μM in Baf3-T315I), 72 hours, P<0.001, P<0.05 in K562-RES, versus either mono-treatment, FIG. 2) | effectiveness versus roflumilast or piclamilast in potentiating the proapoptotic effects of ATO ([2]; CML cell lines, same doses of comparator + ATO, P<0.001 to P<0.05) | enhancement of ATO-induced cytotoxicity and caspase dependence (% Annexin V+) [3] | expression of the myeloid marker CD11b (% CD11b+) ([4]; 72 hours, FIG. 6) | effectiveness versus Roflumilast or Piclamilast in potentiating the cytodifferentiating action of ATRA or ATO ([4]; ATO-sensitive or ATO-resistant APL cell lines, same doses of comparator, P<0.001 to P<0.01) | potentiation of the cytodifferentiating action of ATRA and ATO ([4]; C2 1 μM/10 μM + ATRA or + ATO 1 μM, P<0.001 versus either mono-treatment, NB4 and NB4-AsR, 72 hours) | dose inducing CD38 and CD11b expression relative to piclamilast ([5]; ATO-sensitive or ATO-resistant acute promyelocytic leukemia cells) | induction of the early myeloid markers CD38 and CD11b ([5]; C2 as mono-treatment, ATO-sensitive or ATO-resistant APL cells, 72 hours, FIG. 7) | enhancement of the cytodifferentiating action of ATRA ([5]; very low-dose ATRA, ATO-sensitive or ATO-resistant APL cell lines, 72 hours) | induction of apoptosis [6]
CS(=O)(=O)Nc1ccc(C(=O)O[C@@H](Cc2c(Cl)c[n+]([O-])cc2Cl)c2ccc(OC(F)F)c(OCC3CC3)c2)cc1OCC1CC1 [Compound C2, (-)-3-Cyclopropylmethoxy-4-methanesulfonylamino-benzoic acid 1-(3-cyclopropylmethoxy-4-difluoromethoxy-phenyl)-2-(3,5-dichloro-1-oxy-pyridin-4-yl)-ethyl ester] | more effective than CHF 5152 (roflumilast) or CHF 5859 (piclamilast) | potentiates the proapoptotic effects of ATO | potentiates the proapoptotic effects of ATO | more effective than Roflumilast or Piclamilast | strikingly enhances ATO-induced cytotoxicity in leukemia cells through a caspase-dependent mechanism | upregulates the expression of the myeloid marker CD11b | more effective than Roflumilast or Piclamilast | potentiates the cytodifferentiating action of ATRA and ATO | 5 fold lower | capable of inducing the expressions of the early myeloid markers CD38 and CD11b; also recorded: induces upregulation of the myeloid markers (CD38 and CD11b); also recorded: able to partially induce an early myeloid differentiation | enhances the cytodifferentiating action of very low-dose of ATRA | –
Cn1c(=O)c2[nH]cnc2n(C)c1=O [theophylline] | – | – | – | – | – | – | – | – | – | – | – | induce apoptosis
